Assay results taken from patent publication US11259522B2, “Control of resistant pests” (priority 2017, dated 2022).
In brackets after ≈: the same amount, converted by molar mass. Like-named read-outs stand apart in the source and are kept apart here.

Experiments:
[1] = system: Oryzaephilus surinamensis strain QOS302 (resistant to fenitrothion & chlorpyrifos-methyl); experiment: Grain protectant bioassay on treated wheat, O. surinamensis resistant; type: in vivo; conditions: for Progeny reduction (%): vs untreated control
[2] = system: Sitophilus oryzae susceptible strain LS2; experiment: Grain protectant bioassay on treated wheat, S. oryzae susceptible; type: in vivo; conditions: for Progeny reduction (%): vs untreated control
[3] = system: M. persicae (green peach aphid) population resistant to carbamates and synthetic pyrethroids; experiment: Leaf dip bioassay, green peach aphid, resistant population; type: in vivo, Myzus persicae; conditions: 96 hours exposure; for LC50: Myzus persicae, foliar
Experimental: Each colony was maintained separately on bok choi plants ([…]) within an exclusion cage in a constant temperature room at 24° C. with a photoperiod of 16:8 LD.
Laboratory bioassays were used to determine the efficacy of flavesone against M. persicae following the leaf dip method described in Moores et al. (1994, Pesticide Biochemistry and Physiology, 49, 114-120). A pilot study was first conducted which confirmed that the leaf dip method was appropriate to elicit a clear dose response for Flavocide 500EW against M. persicae, and to determine the appropriate rate range and timing of mortality assessments (scored at 24, 48, 72 & 96 hours) (data not shown).
Bioassays were then conducted to assess the efficacy of flavesone against a susceptible and resistant population of M. persicae, and to calculate LC values. The efficacy of a conventional insecticide, pirimicarb, was tested for comparison. Nine concentrations of flavesone ranging from 1×10^−3 to 10 times the proposed field rate (Table 15), and six concentrations of pirimicarb were serially diluted and tested, along with a water control, against the susceptible and resistant aphid populations. Leaf discs (25 mm diameter) cut from bok choi leaves were submerged for 1 second in the insecticide solutions, or in the water control, and placed adaxial side up on 10 g/L agar in 35 mm petri dishes. Six replicate leaf discs were prepared per treatment. Once leaves were air-dry, eight M. persicae nymphs were transferred to each insecticide-dipped leaf disc using a fine-haired paintbrush.
After aphid introduction, each petri dish was inverted onto a lid containing a 25 mm diameter filter paper to control humidity. All petri dishes were then placed into an incubator held at 18° C.±2° C. with a photoperiod of 16:8 LD cycle. At 48 & 96 hours, aphids were scored as alive (vibrant and moving freely), dead (not moving over a 5 second period), or incapacitated (inhibited movement).
Dose-response curves were generated by plotting percentage mortality against log concentration. Mortality data was analysed using a logistic regression model with random effects. Logistic regression is suited for the analysis of binary response data (i.e. dead/alive) with the random effect component of the model controlling for the non-independence of mortality scores within replicates. […] Population differences were tested by comparing the change in model deviance with and without the population factor (different regression intercepts for each population). Differences in regression slopes between populations were tested by comparing the change in model deviance with and without the population×dose interaction term.

`CC(C)C(=O)C1C(=O)C(C)(C)C(=O)C(C)(C)C1=O` [Flavesone, 1-isobutyroyl-3,3,5,5-tetramethylcyclohexane-2,4,6-trione] was tested, and the Live adult progeny ([1]; 25 mg/kg, mean ± SE) was 160.3 ± 15.7, the “Progeny reduction (%)” value ([1]; 25 mg/kg) was 61.2% and the “Adult mortality (%)” value ([1]; 60 mg/kg, 2 weeks, mean ± SE) was 14.7 ± 8.7%. For the same compound, the Live adult progeny ([1]; 60 mg/kg, mean ± SE) was 0.0 ± 0.0, the “Progeny reduction (%)” value ([1]; 60 mg/kg) was 100% and the mortality at 25 mg/kg ([1]; Oryzaephilus surinamensis, 336 h, 25 mg/kg, 2 weeks, mean ± SE, read-out: Adult mortality (%)) was 0.7%. For the same compound, the mortality at 60 mg/kg ([1]; Oryzaephilus surinamensis, 336 h, 60 mg/kg, 2 weeks, mean ± SE, read-out: Adult mortality (%)) was 14%, the Live adult progeny ([2]; 25 mg/kg, mean ± SE) was 735.3 ± 60.6 and the Live adult progeny ([2]; 60 mg/kg, mean ± SE) was 355.3 ± 64.7. For the same compound, the “Progeny reduction (%)” value ([2]; 60 mg/kg) was 50.3%, the “Progeny reduction (%)” value ([2]; 60 mg/kg, listed as flavesone) was 50% and the mortality at 25 mg/kg ([2]; Sitophilus oryzae, 336 h, 25 mg/kg, 2 weeks, mean ± SE, read-out: Adult mortality (%)) was 1.3 ± 0.7%. The mortality at 60 mg/kg ([2]; Sitophilus oryzae, 336 h, 60 mg/kg, 2 weeks, mean ± SE, read-out: Adult mortality (%)) was 4 ± 1.2%, the LC50 ([3]; Resistant population, read-out: LC50 (mg a.i./L)) was 3150 µg/mL (≈ 12.5 mM) and the LC50 ([3]; susceptible and resistant populations, read-out: LC50) was 2730 to 3150 µg/mL (≈ 10.8 to 12.5 mM). For the same compound, the “LC90 (mg a.i./L)” value ([3]; Resistant population) was 7,929 mg a.i./L and the “LC99 (mg a.i./L)” value ([3]; Resistant population) was 21,708 mg a.i./L.
